According to ChEMBL document CHEMBL5291721, “A preclinical secondary pharmacology resource illuminates target-adverse drug reaction associations of marketed drugs” (Nat Commun, 2023):

What was measured:
[1] = target: Prostaglandin G/H synthase 1 (Homo sapiens, UniProt P23219); type: functional
[2] = target: T1, Estrogen receptor (Homo sapiens, UniProt P03372)
T1 sequence (P03372 whole entry): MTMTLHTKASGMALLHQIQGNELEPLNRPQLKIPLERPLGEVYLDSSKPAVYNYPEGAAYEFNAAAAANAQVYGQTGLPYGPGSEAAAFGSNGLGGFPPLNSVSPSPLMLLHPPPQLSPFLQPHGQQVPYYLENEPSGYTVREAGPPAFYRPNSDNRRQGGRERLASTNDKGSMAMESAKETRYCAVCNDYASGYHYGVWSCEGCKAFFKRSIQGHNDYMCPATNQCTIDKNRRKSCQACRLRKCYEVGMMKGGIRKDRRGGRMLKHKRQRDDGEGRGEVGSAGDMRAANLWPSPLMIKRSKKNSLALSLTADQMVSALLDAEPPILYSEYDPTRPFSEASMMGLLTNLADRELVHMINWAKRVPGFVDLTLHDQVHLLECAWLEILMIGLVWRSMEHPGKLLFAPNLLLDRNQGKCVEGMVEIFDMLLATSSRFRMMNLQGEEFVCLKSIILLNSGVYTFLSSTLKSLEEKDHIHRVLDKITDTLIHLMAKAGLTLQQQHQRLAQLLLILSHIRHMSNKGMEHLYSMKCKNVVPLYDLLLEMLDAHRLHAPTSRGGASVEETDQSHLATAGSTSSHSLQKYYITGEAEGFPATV

[3] = target: Growth hormone secretagogue receptor type 1 (Homo sapiens, UniProt Q92847)
[4] = target: T2, 5-hydroxytryptamine receptor 1A (Homo sapiens, UniProt P08908); type: functional, cell-based
T2 sequence (P08908 whole entry): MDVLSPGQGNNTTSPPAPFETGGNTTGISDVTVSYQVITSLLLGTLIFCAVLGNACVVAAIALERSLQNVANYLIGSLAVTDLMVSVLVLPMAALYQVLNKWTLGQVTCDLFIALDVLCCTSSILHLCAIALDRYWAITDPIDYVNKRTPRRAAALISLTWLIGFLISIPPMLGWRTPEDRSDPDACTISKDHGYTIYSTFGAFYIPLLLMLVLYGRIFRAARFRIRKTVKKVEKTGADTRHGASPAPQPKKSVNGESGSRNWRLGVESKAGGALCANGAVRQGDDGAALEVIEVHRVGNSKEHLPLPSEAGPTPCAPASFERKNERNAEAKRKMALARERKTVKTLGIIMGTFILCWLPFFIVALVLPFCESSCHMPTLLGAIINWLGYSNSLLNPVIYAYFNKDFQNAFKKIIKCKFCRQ

[5] = target: T3, Gastrin/cholecystokinin type B receptor (Homo sapiens, UniProt P32239)
T3 sequence (P32239 whole entry): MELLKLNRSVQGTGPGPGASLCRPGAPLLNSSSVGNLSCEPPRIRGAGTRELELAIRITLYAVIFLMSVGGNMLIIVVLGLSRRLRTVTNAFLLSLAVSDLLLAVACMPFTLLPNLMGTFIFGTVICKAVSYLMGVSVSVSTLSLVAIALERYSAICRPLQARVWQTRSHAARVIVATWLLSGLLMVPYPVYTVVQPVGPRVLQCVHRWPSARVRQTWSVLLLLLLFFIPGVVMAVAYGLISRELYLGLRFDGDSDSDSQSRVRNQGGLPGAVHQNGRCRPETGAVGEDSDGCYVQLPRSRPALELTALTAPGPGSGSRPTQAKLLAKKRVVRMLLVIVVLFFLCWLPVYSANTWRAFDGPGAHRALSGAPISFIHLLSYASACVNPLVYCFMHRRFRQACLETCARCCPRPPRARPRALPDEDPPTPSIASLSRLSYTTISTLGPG

[6] = target: T4, Prostaglandin G/H synthase 1 (Rattus norvegicus, UniProt Q63921); type: functional
T4 sequence (Q63921 whole entry): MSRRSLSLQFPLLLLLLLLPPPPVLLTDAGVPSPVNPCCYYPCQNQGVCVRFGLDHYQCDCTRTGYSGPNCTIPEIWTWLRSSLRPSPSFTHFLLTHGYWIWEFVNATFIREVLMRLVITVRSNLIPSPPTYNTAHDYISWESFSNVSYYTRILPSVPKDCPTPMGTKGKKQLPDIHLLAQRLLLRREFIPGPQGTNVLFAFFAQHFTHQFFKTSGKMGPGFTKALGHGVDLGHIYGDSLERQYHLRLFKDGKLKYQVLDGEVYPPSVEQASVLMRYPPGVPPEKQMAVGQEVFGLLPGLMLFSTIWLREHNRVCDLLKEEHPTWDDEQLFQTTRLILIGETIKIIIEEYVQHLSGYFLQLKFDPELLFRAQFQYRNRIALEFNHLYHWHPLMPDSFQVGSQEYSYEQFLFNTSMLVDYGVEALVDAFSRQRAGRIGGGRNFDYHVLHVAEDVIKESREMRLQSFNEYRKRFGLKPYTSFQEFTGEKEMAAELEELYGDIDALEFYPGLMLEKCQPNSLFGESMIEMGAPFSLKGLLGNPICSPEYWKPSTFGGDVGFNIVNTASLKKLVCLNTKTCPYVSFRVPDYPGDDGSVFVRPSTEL

[7] = target: T5, Muscarinic acetylcholine receptor M2 (Homo sapiens, UniProt P08172); type: functional, cell-based
T5 sequence (P08172 whole entry): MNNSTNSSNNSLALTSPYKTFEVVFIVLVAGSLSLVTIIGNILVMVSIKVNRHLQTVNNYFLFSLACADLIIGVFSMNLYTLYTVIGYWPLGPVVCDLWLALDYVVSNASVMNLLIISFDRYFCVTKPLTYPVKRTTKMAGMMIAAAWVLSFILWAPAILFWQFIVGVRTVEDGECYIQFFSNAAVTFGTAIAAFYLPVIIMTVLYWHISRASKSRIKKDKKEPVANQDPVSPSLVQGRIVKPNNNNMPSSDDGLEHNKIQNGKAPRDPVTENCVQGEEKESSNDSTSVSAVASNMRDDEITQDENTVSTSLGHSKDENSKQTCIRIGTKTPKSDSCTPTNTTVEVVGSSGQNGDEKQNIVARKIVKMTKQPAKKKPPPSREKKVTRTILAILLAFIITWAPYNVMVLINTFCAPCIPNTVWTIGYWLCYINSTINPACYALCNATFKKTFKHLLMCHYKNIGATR

[8] = target: Vasopressin V2 receptor (Homo sapiens, UniProt P30518)
[9] = target: Beta-2 adrenergic receptor (Homo sapiens, UniProt P07550)
[10] = target: Vasopressin V1a receptor (Homo sapiens, UniProt P37288)
Also: assay procedure not described here.

Prostaglandin G/H synthase 1 (Homo sapiens, UniProt P23219), sequence (P23219 whole entry): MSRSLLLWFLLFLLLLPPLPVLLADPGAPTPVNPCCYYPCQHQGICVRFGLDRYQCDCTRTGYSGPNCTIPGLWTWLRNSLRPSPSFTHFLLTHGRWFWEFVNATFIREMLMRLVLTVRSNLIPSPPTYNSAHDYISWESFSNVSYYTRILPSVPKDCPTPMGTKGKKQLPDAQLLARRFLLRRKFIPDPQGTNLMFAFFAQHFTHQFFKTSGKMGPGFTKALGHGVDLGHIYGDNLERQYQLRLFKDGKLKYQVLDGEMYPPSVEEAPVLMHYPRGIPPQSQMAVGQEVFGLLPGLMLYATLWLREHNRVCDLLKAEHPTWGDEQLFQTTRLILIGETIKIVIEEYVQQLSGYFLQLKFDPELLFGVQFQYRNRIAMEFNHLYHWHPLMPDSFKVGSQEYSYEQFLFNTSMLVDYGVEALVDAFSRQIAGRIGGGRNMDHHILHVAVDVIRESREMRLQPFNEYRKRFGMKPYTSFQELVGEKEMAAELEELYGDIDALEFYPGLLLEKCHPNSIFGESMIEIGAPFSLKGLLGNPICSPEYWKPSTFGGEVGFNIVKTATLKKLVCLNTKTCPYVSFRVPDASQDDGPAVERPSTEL
Growth hormone secretagogue receptor type 1, sequence (Q92847 whole entry): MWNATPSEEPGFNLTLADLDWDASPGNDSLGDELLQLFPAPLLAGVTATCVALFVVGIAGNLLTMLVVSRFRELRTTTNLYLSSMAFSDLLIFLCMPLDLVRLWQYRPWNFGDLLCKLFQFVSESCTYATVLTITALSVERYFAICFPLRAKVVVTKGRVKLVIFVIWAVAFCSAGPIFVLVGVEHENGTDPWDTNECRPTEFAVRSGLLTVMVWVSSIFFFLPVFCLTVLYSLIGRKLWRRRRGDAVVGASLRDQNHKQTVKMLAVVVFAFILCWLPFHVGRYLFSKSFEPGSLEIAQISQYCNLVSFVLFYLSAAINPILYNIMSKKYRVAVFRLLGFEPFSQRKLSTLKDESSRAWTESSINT
Vasopressin V1a receptor, sequence (P37288 whole entry): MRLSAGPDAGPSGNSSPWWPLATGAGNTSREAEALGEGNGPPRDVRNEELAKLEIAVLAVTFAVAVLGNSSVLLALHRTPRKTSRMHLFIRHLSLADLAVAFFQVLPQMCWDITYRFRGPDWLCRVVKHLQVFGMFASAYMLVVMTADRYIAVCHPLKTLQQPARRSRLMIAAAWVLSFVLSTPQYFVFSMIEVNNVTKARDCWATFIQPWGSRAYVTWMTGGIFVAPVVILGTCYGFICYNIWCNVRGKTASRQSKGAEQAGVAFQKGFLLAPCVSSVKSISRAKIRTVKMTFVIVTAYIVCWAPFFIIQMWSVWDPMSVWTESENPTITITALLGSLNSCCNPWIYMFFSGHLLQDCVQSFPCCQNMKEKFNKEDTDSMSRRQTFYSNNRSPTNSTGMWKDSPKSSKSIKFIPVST

AC50 [3] [µM]	AC50 [4] [µM]	AC50 [5] [µM]	AC50 [6] [µM]	AC50 [7] [µM]	AC50 [8] [µM]	AC50 [9] [µM]	AC50 [10] [µM]	Compound	AC50 [1] [µM]	AC50 [2] [µM]
–	–	–	–	–	–	–	–	CN(C)c1ccc(C(=C2C=CC(=[N+](C)C)C=C2)c2ccc(N(C)C)cc2)cc1 [GENTIAN VIOLET]	11.8	> 30
> 30	> 30	> 30	0.003	> 30	> 30	> 30	> 30	HYDROXOCOBALAMIN	–	–
